Converted amounts (≈) assume the structure as drawn.
How the values were obtained:
Type in all cases: functional
Bacteroides uniformis [1] = assay: Antibacterial activity against Bacteroides uniformis isolate by agar dilution method
Bacteroides ovatus [2] = assay: Antibacterial activity against Bacteroides ovatus assessed as percent resistant isolates by agar dilution method
Bacteroides fragilis [3] = assay: Antibacterial activity against Bacteroides fragilis assessed as percent resistant isolates by agar dilution method
Bacteroides sp. = assay: Antibacterial activity against Bacteroides spp. isolate by agar dilution method
Bacteroides ovatus [4] = assay: Antibacterial activity against Bacteroides ovatus isolate by agar dilution method
Bacteroides eggerthii = assay: Antibacterial activity against Bacteroides eggerthii isolate by agar dilution method
[5] = test system: Parabacteroides distasonis; assay: Antibacterial activity against Bacteroides distasonis isolate by agar dilution method
Bacteroides caccae [6] = assay: Antibacterial activity against Bacteroides caccae isolate by agar dilution method
[7] = test system: Parabacteroides distasonis; assay: Antibacterial activity against Bacteroides distasonis assessed as percent resistant isolates by agar dilution method
Phocaeicola vulgatus [8] = assay: Antibacterial activity against Bacteroides vulgatus assessed as percent resistant isolates by agar dilution method
Bacteroides stercoris [9] = assay: Antibacterial activity against Bacteroides stercoris assessed as percent resistant isolates by agar dilution method; settings: pooled result: one value given for 4 cell lines, strains, targets or settings
Bacteroides fragilis [10] = assay: Antibacterial activity against Bacteroides fragilis isolate by agar dilution method
Bacteroides caccae [11] = assay: Antibacterial activity against Bacteroides caccae assessed as percent resistant isolates by agar dilution method
[12] = test system: Bacteroides thetaiotaomicron; assay: Antibacterial activity against Bacteroides thetaiotaomicron isolate by agar dilution method
Parabacteroides merdae = assay: Antibacterial activity against Bacteroides merdae isolate by agar dilution method
Bacteroides stercoris [13] = assay: Antibacterial activity against Bacteroides stercoris isolate by agar dilution method
[14] = test system: Bacteroides thetaiotaomicron; assay: Antibacterial activity against Bacteroides thetaiotaomicron assessed as percent resistant isolates by agar dilution method
Bacteroides uniformis [15] = assay: Antibacterial activity against Bacteroides uniformis assessed as percent resistant isolates by agar dilution method
Phocaeicola vulgatus [16] = assay: Antibacterial activity against Bacteroides vulgatus isolate by agar dilution method

## CO[C@@]1(NC(=O)Cc2cccs2)C(=O)N2C(C(=O)O)=C(COC(N)=O)CS[C@@H]21 [CEFOXITIN]
Bacteroides uniformis [1]
  MIC50: 16 µg/mL (≈ 37.4 µM)
  MIC90: 32 µg/mL (≈ 74.9 µM)
Bacteroides ovatus [2]
  Activity: 12.2%
Bacteroides fragilis [3]
  Activity: 6.4%
Bacteroides sp.
  MIC50: 16 µg/mL (≈ 37.4 µM)
  MIC90: 64 µg/mL (≈ 150 µM)
Bacteroides ovatus [4]
  MIC50: 16 µg/mL (≈ 37.4 µM)
  MIC90: 64 µg/mL (≈ 150 µM)
Bacteroides eggerthii
  MIC50: 16 µg/mL (≈ 37.4 µM)
  MIC90: 64 µg/mL (≈ 150 µM)
[5]
  MIC50: 32 µg/mL (≈ 74.9 µM)
  MIC90: 64 µg/mL (≈ 150 µM)
Bacteroides caccae [6]
  MIC50: 16 µg/mL (≈ 37.4 µM)
  MIC90: 32 µg/mL (≈ 74.9 µM)
[7]
  Activity: 25.6%
Phocaeicola vulgatus [8]
  Activity: 17%
Bacteroides stercoris [9]
  Activity: 23.9%
Bacteroides fragilis [10]
  MIC50: 8 µg/mL (≈ 18.7 µM)
  MIC90: 32 µg/mL (≈ 74.9 µM)
Bacteroides caccae [11]
  Activity: 8.9%
[12]
  MIC50: 32 µg/mL (≈ 74.9 µM)
  MIC90: 64 µg/mL (≈ 150 µM)
Parabacteroides merdae
  MIC50: 16 µg/mL (≈ 37.4 µM)
  MIC90: 64 µg/mL (≈ 150 µM)
Bacteroides stercoris [13]
  MIC50: 16 µg/mL (≈ 37.4 µM)
  MIC90: 64 µg/mL (≈ 150 µM)
[14]
  Activity: 23.6%
Bacteroides uniformis [15]
  Activity: 9.4%
Phocaeicola vulgatus [16]
  MIC50: 16 µg/mL (≈ 37.4 µM)
  MIC90: 64 µg/mL (≈ 150 µM)

## O=C(N[C@H](CO)[C@H](O)c1ccc([N+](=O)[O-])cc1)C(Cl)Cl [CHLORAMPHENICOL]
Bacteroides uniformis [1]
  MIC50: 4 µg/mL (≈ 12.4 µM)
  MIC90: 8 µg/mL (≈ 24.8 µM)
Bacteroides ovatus [2]
  Activity: 0%
Bacteroides fragilis [3]
  Activity: 0%
Bacteroides sp.
  MIC50: 4 µg/mL (≈ 12.4 µM)
  MIC90: 8 µg/mL (≈ 24.8 µM)
Bacteroides ovatus [4]
  MIC50: 4 µg/mL (≈ 12.4 µM)
  MIC90: 8 µg/mL (≈ 24.8 µM)
Bacteroides eggerthii
  MIC50: 4 µg/mL (≈ 12.4 µM)
  MIC90: 8 µg/mL (≈ 24.8 µM)
[5]
  MIC50: 8 µg/mL (≈ 24.8 µM)
  MIC90: 8 µg/mL (≈ 24.8 µM)
Bacteroides caccae [6]
  MIC50: 4 µg/mL (≈ 12.4 µM)
  MIC90: 8 µg/mL (≈ 24.8 µM)
[7]
  Activity: 0%
Phocaeicola vulgatus [8]
  Activity: 0%
Bacteroides stercoris [9]
  Activity: 0%
Bacteroides fragilis [10]
  MIC50: 4 µg/mL (≈ 12.4 µM)
  MIC90: 8 µg/mL (≈ 24.8 µM)
Bacteroides caccae [11]
  Activity: 0%
[12]
  MIC50: 4 µg/mL (≈ 12.4 µM)
  MIC90: 8 µg/mL (≈ 24.8 µM)
Parabacteroides merdae
  MIC50: 4 µg/mL (≈ 12.4 µM)
  MIC90: 8 µg/mL (≈ 24.8 µM)
Bacteroides stercoris [13]
  MIC50: 4 µg/mL (≈ 12.4 µM)
  MIC90: 8 µg/mL (≈ 24.8 µM)
[14]
  Activity: 0%
Bacteroides uniformis [15]
  Activity: 0%
Phocaeicola vulgatus [16]
  MIC50: 4 µg/mL (≈ 12.4 µM)
  MIC90: 8 µg/mL (≈ 24.8 µM)

## CCC[C@@H]1C[C@@H](C(=O)N[C@@H]([C@H]2O[C@H](SC)[C@H](O)[C@@H](O)[C@H]2O)[C@H](C)Cl)N(C)C1 [CLINDAMYCIN]
Bacteroides uniformis [1]
  MIC50: 2 µg/mL (≈ 4.71 µM)
  MIC90: > 256 µg/mL
Bacteroides ovatus [2]
  Activity: 48.8%
Bacteroides fragilis [3]
  Activity: 33.3%
Bacteroides sp.
  MIC50: 4 µg/mL (≈ 9.41 µM)
  MIC90: > 256 µg/mL
Bacteroides ovatus [4]
  MIC50: 4 µg/mL (≈ 9.41 µM)
  MIC90: > 256 µg/mL
Bacteroides eggerthii
  MIC50: 4 µg/mL (≈ 9.41 µM)
  MIC90: > 256 µg/mL
[5]
  MIC50: 4 µg/mL (≈ 9.41 µM)
  MIC90: > 256 µg/mL
Bacteroides caccae [6]
  MIC50: 4 µg/mL (≈ 9.41 µM)
  MIC90: > 256 µg/mL
[7]
  Activity: 41.9%
Phocaeicola vulgatus [8]
  Activity: 44.7%
Bacteroides stercoris [9]
  Activity: 45.7%
Bacteroides fragilis [10]
  MIC50: 2 µg/mL (≈ 4.71 µM)
  MIC90: > 256 µg/mL
Bacteroides caccae [11]
  Activity: 46.7%
[12]
  MIC50: 4 µg/mL (≈ 9.41 µM)
  MIC90: > 256 µg/mL
Parabacteroides merdae
  MIC50: 4 µg/mL (≈ 9.41 µM)
  MIC90: > 256 µg/mL
Bacteroides stercoris [13]
  MIC50: 4 µg/mL (≈ 9.41 µM)
  MIC90: > 256 µg/mL
[14]
  Activity: 47.3%
Bacteroides uniformis [15]
  Activity: 40.6%
Phocaeicola vulgatus [16]
  MIC50: 4 µg/mL (≈ 9.41 µM)
  MIC90: > 256 µg/mL

## C[C@@H](O)[C@H]1C(=O)N2C(C(=O)O)=C(SCCNC=N)C[C@H]12 [IMIPENEM ANHYDROUS]
Bacteroides uniformis [1]
  MIC50: 0.25 µg/mL (≈ 0.835 µM)
  MIC90: 2 µg/mL (≈ 6.68 µM)
Bacteroides ovatus [2]
  Activity: 0%
Bacteroides fragilis [3]
  Activity: 0.6%
Bacteroides sp.
  MIC50: 0.25 µg/mL (≈ 0.835 µM)
  MIC90: 2 µg/mL (≈ 6.68 µM)
Bacteroides ovatus [4]
  MIC50: 0.25 µg/mL (≈ 0.835 µM)
  MIC90: 2 µg/mL (≈ 6.68 µM)
Bacteroides eggerthii
  MIC50: 0.25 µg/mL (≈ 0.835 µM)
  MIC90: 2 µg/mL (≈ 6.68 µM)
[5]
  MIC50: 1 µg/mL (≈ 3.34 µM)
  MIC90: 1 µg/mL (≈ 3.34 µM)
Bacteroides caccae [6]
  MIC50: 0.5 µg/mL (≈ 1.67 µM)
  MIC90: 2 µg/mL (≈ 6.68 µM)
[7]
  Activity: 0%
Phocaeicola vulgatus [8]
  Activity: 0%
Bacteroides stercoris [9]
  Activity: 0%
Bacteroides fragilis [10]
  MIC50: 0.25 µg/mL (≈ 0.835 µM)
  MIC90: 1 µg/mL (≈ 3.34 µM)
Bacteroides caccae [11]
  Activity: 0%
[12]
  MIC50: 0.5 µg/mL (≈ 1.67 µM)
  MIC90: 2 µg/mL (≈ 6.68 µM)
Parabacteroides merdae
  MIC50: 0.25 µg/mL (≈ 0.835 µM)
  MIC90: 2 µg/mL (≈ 6.68 µM)
Bacteroides stercoris [13]
  MIC50: 0.25 µg/mL (≈ 0.835 µM)
  MIC90: 2 µg/mL (≈ 6.68 µM)
[14]
  Activity: 0.5%
Bacteroides uniformis [15]
  Activity: 0%
Phocaeicola vulgatus [16]
  MIC50: 0.5 µg/mL (≈ 1.67 µM)
  MIC90: 2 µg/mL (≈ 6.68 µM)

## Cc1ncc([N+](=O)[O-])n1CCO [METRONIDAZOLE]
Bacteroides uniformis [1]
  MIC50: 1 µg/mL (≈ 5.84 µM)
  MIC90: 2 µg/mL (≈ 11.7 µM)
Bacteroides ovatus [2]
  Activity: 0%
Bacteroides fragilis [3]
  Activity: 0%
Bacteroides sp.
  MIC50: 0.5 µg/mL (≈ 2.92 µM)
  MIC90: 2 µg/mL (≈ 11.7 µM)
Bacteroides ovatus [4]
  MIC50: 1 µg/mL (≈ 5.84 µM)
  MIC90: 2 µg/mL (≈ 11.7 µM)
Bacteroides eggerthii
  MIC50: 0.5 µg/mL (≈ 2.92 µM)
  MIC90: 2 µg/mL (≈ 11.7 µM)
[5]
  MIC50: 1 µg/mL (≈ 5.84 µM)
  MIC90: 2 µg/mL (≈ 11.7 µM)
Bacteroides caccae [6]
  MIC50: 1 µg/mL (≈ 5.84 µM)
  MIC90: 2 µg/mL (≈ 11.7 µM)
[7]
  Activity: 0%
Phocaeicola vulgatus [8]
  Activity: 0%
Bacteroides stercoris [9]
  Activity: 0%
Bacteroides fragilis [10]
  MIC50: 1 µg/mL (≈ 5.84 µM)
  MIC90: 2 µg/mL (≈ 11.7 µM)
Bacteroides caccae [11]
  Activity: 0%
[12]
  MIC50: 1 µg/mL (≈ 5.84 µM)
  MIC90: 2 µg/mL (≈ 11.7 µM)
Parabacteroides merdae
  MIC50: 0.5 µg/mL (≈ 2.92 µM)
  MIC90: 2 µg/mL (≈ 11.7 µM)
Bacteroides stercoris [13]
  MIC50: 0.5 µg/mL (≈ 2.92 µM)
  MIC90: 2 µg/mL (≈ 11.7 µM)
[14]
  Activity: 0%
Bacteroides uniformis [15]
  Activity: 0%
Phocaeicola vulgatus [16]
  MIC50: 1 µg/mL (≈ 5.84 µM)
  MIC90: 2 µg/mL (≈ 11.7 µM)

## CN(C)c1cc(NC(=O)CNC(C)(C)C)c(O)c2c1C[C@H]1C[C@H]3[C@H](N(C)C)C(O)=C(C(N)=O)C(=O)[C@@]3(O)C(O)=C1C2=O [TIGECYCLINE]
Bacteroides uniformis [1]
  MIC50: 1 µg/mL (≈ 1.71 µM)
  MIC90: 8 µg/mL (≈ 13.7 µM)
Bacteroides ovatus [2]
  Activity: 7.2%
Bacteroides fragilis [3]
  Activity: 6.5%
Bacteroides sp.
  MIC50: 1 µg/mL (≈ 1.71 µM)
  MIC90: 8 µg/mL (≈ 13.7 µM)
Bacteroides ovatus [4]
  MIC50: 2 µg/mL (≈ 3.41 µM)
  MIC90: 8 µg/mL (≈ 13.7 µM)
Bacteroides eggerthii
  MIC50: 1 µg/mL (≈ 1.71 µM)
  MIC90: 8 µg/mL (≈ 13.7 µM)
[5]
  MIC50: 2 µg/mL (≈ 3.41 µM)
  MIC90: 8 µg/mL (≈ 13.7 µM)
Bacteroides caccae [6]
  MIC50: 1 µg/mL (≈ 1.71 µM)
  MIC90: 16 µg/mL (≈ 27.3 µM)
[7]
  Activity: 8.3%
Phocaeicola vulgatus [8]
  Activity: 6.1%
Bacteroides stercoris [9]
  Activity: 10.5%
Bacteroides fragilis [10]
  MIC50: 1 µg/mL (≈ 1.71 µM)
  MIC90: 8 µg/mL (≈ 13.7 µM)
Bacteroides caccae [11]
  Activity: 16.1%
[12]
  MIC50: 1 µg/mL (≈ 1.71 µM)
  MIC90: 8 µg/mL (≈ 13.7 µM)
Parabacteroides merdae
  MIC50: 1 µg/mL (≈ 1.71 µM)
  MIC90: 8 µg/mL (≈ 13.7 µM)
Bacteroides stercoris [13]
  MIC50: 1 µg/mL (≈ 1.71 µM)
  MIC90: 8 µg/mL (≈ 13.7 µM)
[14]
  Activity: 7.5%
Bacteroides uniformis [15]
  Activity: 9.1%
Phocaeicola vulgatus [16]
  MIC50: 0.5 µg/mL (≈ 0.854 µM)
  MIC90: 8 µg/mL (≈ 13.7 µM)

Reference: ChEMBL document CHEMBL1275453, “Resistance trends of the Bacteroides fragilis group over a 10-year period, 1997 to 2006, in Madrid, Spain” (2008)
